This note sets out measurements from patent US6916812B2, “Alpha-aminoamide derivatives as melanocortin agonists” (Bristol-Myers Squibb Company, priority 2001, dated 2005).

For the assay, the target named is T1, cloned human MC4R (Homo sapiens, UniProt P32245).
T1 construct: made in house; host or cells: Hi5 insect cells (baculovirus infection); membrane preparation
Nature of the assay: Membrane binding assay: competitive inhibition of [125I]NDP-α-MSH binding. The following applies: for inhibition at 10 µM: read-out: Displacement Rate (%) (at 10 μM); for IC50: read-out: MC4R IC50. The protocol:
Hi5 cells are infected using the following protocol: Cells at a density of 1×10^6 cells/mL are spun down at 1000 rpm (Beckman GS-6KR centrifuge) for 10 minutes. Cells are resuspended in 10% of their original volume in a sterile 50 mL conical centrifuge tube wrapped with aluminum foil. Virus is added at a Multiplicity of Infection (MOI) of 3 and incubated for 1 hour at room temperature with gentle shaking. […] Cells are spun down in 50 mL conical centrifuge tubes at 1000 rpm for 10 minutes. Each of the resulting pellets are resuspended in 10 mL of cold (4° C.) membrane buffer (25 mM HEPES, pH 7.4, 140 mM NaCl, 1.2 mM MgCl2, 2.5 mM CaCl2, 10 μG/mL Aprotinin, 10 μG/mL Leupeptin) and Dounce homogenized using 10-12 strokes. […] The resulting pellet is resuspended in cold membrane buffer in a total of ¼ of the original volume by vortexing and aspiration using a syringe and 27 gauge needle. Protein content is determined (Bradford, Bio-Rad Protein Assay). Membranes are aliquoted in microcentrifuge tubes and quick frozen in liquid nitrogen. Store at −80° C. until use. The membrane binding buffer is composed of 25 mM HEPES, pH 7.4, 140 mM NaCl, 1.2 mM MgCl2, 2.5 mM CaCl2, 0.1% BSA. […] The mixture is filtered with Brandel Microplate 96 filter apparatus using 96-well GF/B filter presoaked in 1-% polyethyleneimine (Sigma). The filter is washed (4 times with a total of 1 mL per well) with cold wash buffer consisting of 20 mM HEPES, pH 7.4, 5 mM MgCl2. […] 100 μl of Wallac Optiphase Supermix scintillation fluid is added to each well. The top is sealed and the plates are shaken to insure that the filters are thoroughly soaked with fluid. […] Dose-response curves are fitted by […] analyses and IC50 values are calculated using ExcelFit.

Where [1] appears, read: at 10 μM, [125I]NDP-α-MSH displacement.

Read-outs that look alike come from different tables or passages of the source.

T1 sequence (P32245 whole entry): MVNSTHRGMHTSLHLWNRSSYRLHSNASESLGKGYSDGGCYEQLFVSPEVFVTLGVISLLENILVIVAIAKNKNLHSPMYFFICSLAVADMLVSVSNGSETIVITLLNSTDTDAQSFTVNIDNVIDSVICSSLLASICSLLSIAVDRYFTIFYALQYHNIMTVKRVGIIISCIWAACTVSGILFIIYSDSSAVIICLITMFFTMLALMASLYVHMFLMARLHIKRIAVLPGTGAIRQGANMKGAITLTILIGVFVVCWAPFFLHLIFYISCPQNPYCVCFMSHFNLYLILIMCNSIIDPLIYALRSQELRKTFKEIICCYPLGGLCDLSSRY

On to `N[C@@H](Cc1ccc(OCc2ccccc2)cc1)C(=O)N1CCN(Cc2cccc(F)c2F)CC1` [Example 120], for which the IC50 was over 3 µM. Besides, under setting [1], the inhibition at 10 µM was in the range of 71 to 90%.

Consider `N[C@@H](Cc1ccc(OCc2ccccc2)cc1)C(=O)N1CCN(Cc2cccc(Oc3ccccc3)c2)CC1` [Example 103], for which the IC50 is under 1.5 µM. For the same molecule, under setting [1], the inhibition at 10 µM lay within 91 to 100%.

For the molecule `CCOc1cccc(CN2CCCN(C(=O)[C@@H](N)Cc3ccc(OCc4ccccc4)cc3)CC2)c1O` [Example 40], the IC50 was over 3 µM. Besides, under setting [1], the inhibition at 10 µM lay in the range of 71 to 90%.

Turning to `N[C@@H](Cc1ccc(OCCc2cccc3ccccc23)cc1)C(=O)N1CCN(Cc2cccc(Cl)c2Cl)CC1` [Example 244], the IC50 is under 1.5 µM. Moreover, the “Displacement Rate (%) (at 10 μM)” value under setting [1] is “+++ (+++ = 91-100)”.

With `Cc1cccc(-c2ccc(C[C@H](N)C(=O)N3CCN(Cc4cccc(Cl)c4Cl)CC3)cc2)c1` [Example 318], the IC50 fell in the range of 1.5 to 3 µM. For the same molecule, the inhibition at 10 µM under setting [1] is 91 to 100%.

Turning to `N[C@@H](Cc1ccc(OCc2ccccc2)cc1)C(=O)N1CCN(Cc2cccc(Cl)c2Cl)CC1` [Example 93], the IC50 was under 1.5 µM. Further, the inhibition at 10 µM under setting [1] was 91 to 100%.

Regarding `N[C@@H](Cc1ccc(OCc2ccccc2)cc1)C(=O)N1CCCN(Cc2ccc(/C=C/c3ccccc3)cc2)CC1` [Example 11], the IC50 was under 1.5 µM. Besides, the inhibition at 10 µM under setting [1] was 91 to 100%.

On to `Cc1ccc(C)c(CN2CCCN(C(=O)[C@@H](N)Cc3ccc(OCc4ccccc4)cc3)CC2)c1` [Example 36], for which the IC50 was over 3 µM. Moreover, the inhibition at 10 µM under setting [1] was 71 to 90%.

With `COc1cccc(CN2CCCN(C(=O)[C@@H](N)Cc3ccc(OCc4ccccc4)cc3)CC2)c1OC` [Example 54], the IC50 was over 3 µM. Moreover, the inhibition at 10 µM under setting [1] lay in the range of 35 to 70%.

Turning to `CC(Cc1cccc(C(F)(F)F)c1)N1CCN(C(=O)[C@@H](N)Cc2ccc(OCc3ccccc3)cc2)CC1` (stereo partly shown) [Example 136], the half-maximal inhibitory concentration (IC50) is over 3 µM. For the same molecule, the inhibition at 10 µM under setting [1] fell in the range of 35 to 70%.

With `CN(C)c1ccc(CN2CCN(C(=O)[C@@H](N)Cc3ccc(OCc4ccccc4)cc3)CC2)c2ccccc12` [Example 137], the IC50 was over 3 µM. For the same molecule, the inhibition at 10 µM under setting [1] lay in the range of 35 to 70%.

`COc1cc(-c2ccc(C[C@H](N)C(=O)N3CCN(Cc4cccc(Cl)c4Cl)CC3)cc2)cc(OC)c1OC` [Example 334]: the half-maximal inhibitory concentration (IC50) was over 3 µM. For the same molecule, under setting [1], the inhibition at 10 µM was 35 to 70%.

With `N[C@@H](Cc1ccc(OCc2ccc(Cl)cc2Cl)cc1)C(=O)N1CCN(Cc2cccc(Cl)c2Cl)CC1` [Example 200], the IC50 is under 1.5 µM. The “Displacement Rate (%) (at 10 μM)” value under setting [1] is on record as “+++ (+++ = 91-100)”.

Regarding `N[C@@H](Cc1ccc(OCCc2ccccc2Cl)cc1)C(=O)N1CCN(Cc2cccc(Cl)c2Cl)CC1` [Example 242], the 50% inhibitory concentration (IC50) was under 1.5 µM. The “Displacement Rate (%) (at 10 μM)” value under setting [1] was “+++ (+++ = 91-100)”.

Regarding `CC(C)(C)c1ccc(-c2ccc(C[C@H](N)C(=O)N3CCN(Cc4cccc(Cl)c4Cl)CC3)cc2)cc1` [Example 305], the 50% inhibitory concentration (IC50) was under 1.5 µM. The inhibition at 10 µM under setting [1] was 91 to 100%.

Turning to `COc1cc(CN2CCCN(C(=O)[C@@H](N)Cc3ccc(OCc4ccccc4)cc3)CC2)ccc1OCc1ccc([N+](=O)[O-])cc1` [Example 15], the IC50 was in the range of 1.5 to 3 µM. For the same molecule, under setting [1], the inhibition at 10 µM was in the range of 91 to 100%.

Take `Cc1ccccc1CCOc1ccc(C[C@H](N)C(=O)N2CCN(Cc3cccc(Cl)c3Cl)CC2)cc1` [Example 237]: the IC50 is under 1.5 µM. Moreover, the “Displacement Rate (%) (at 10 μM)” value under setting [1] is “+++ (+++ = 91-100)”.

For the molecule `COc1cc(CN2CCN(C(=O)[C@@H](N)Cc3ccc(OCc4ccccc4)cc3)CC2)ccc1OCc1ccccc1` [Example 115], the IC50 is over 3 µM. In addition, the inhibition at 10 µM under setting [1] lay in the range of 71 to 90%.

As to `COc1cc(CN2CCCN(C(=O)[C@@H](N)Cc3ccc(OCc4ccccc4)cc3)CC2)ccc1OCc1ccccc1` [Example 29], the IC50 was 1.5 to 3 µM. The inhibition at 10 µM under setting [1] was in the range of 71 to 90%.

In the case of `N[C@@H](Cc1ccc(OCc2cc3c(cc2[N+](=O)[O-])OCO3)cc1)C(=O)N1CCN(Cc2cccc(Cl)c2Cl)CC1` [Example 229], the IC50 is over 3 µM. The “Displacement Rate (%) (at 10 μM)” value under setting [1] is listed as “++ (++ = 71-90)”.

For the molecule `N[C@@H](Cc1ccc(OCc2ccccc2)cc1)C(=O)N1CCN(Cc2ccc3c(c2)Cc2ccccc2-3)CC1` [Example 83], the IC50 is under 1.5 µM. For the same molecule, the inhibition at 10 µM under setting [1] was in the range of 91 to 100%.

As to `COc1ccc(CCC(C)N2CCN(C(=O)[C@@H](N)Cc3ccc(OCc4ccccc4)cc3)CC2)cc1` (stereo partly shown) [Example 132], the IC50 is over 3 µM. Besides, under setting [1], the inhibition at 10 µM lay in the range of 35 to 70%.

Turning to `CC(=O)c1ccc(-c2ccc(C[C@H](N)C(=O)N3CCN(Cc4cccc(Cl)c4Cl)CC3)cc2)s1` [Example 342], the inhibition at 10 µM fell in the range of 71 to 90% and the half-inhibitory concentration (IC50) lay in the range of 1.5 to 3 µM.

With `CCN[C@@H](Cc1ccc(OCc2ccccc2)cc1)C(=O)N1CCN(Cc2cccc(Cl)c2Cl)CC1` [Example 166], the IC50 was under 1.5 µM. Further, the inhibition at 10 µM under setting [1] fell in the range of 91 to 100%.

On to `Cc1ccc(S(=O)(=O)n2cc(CN3CCCN(C(=O)[C@@H](N)Cc4ccc(OCc5ccccc5)cc4)CC3)c3ccccc32)cc1` [Example 18], for which the concentration for half-maximal inhibition (IC50) was under 1.5 µM. Further, under setting [1], the inhibition at 10 µM lay within 91 to 100%.

As to `N[C@@H](Cc1ccc(OCc2ccccc2)cc1)C(=O)N1CCCN(Cc2cccc(Oc3ccc(Cl)c(Cl)c3)c2)CC1` [Example 19], the IC50 is under 1.5 µM. Also, under setting [1], the inhibition at 10 µM is 91 to 100%.

Turning to `N[C@@H](Cc1ccc(OCc2ccccc2)cc1)C(=O)N1CCCN(Cc2ccc3c(c2)OCCO3)CC1` [Example 70], the IC50 is over 3 µM. Besides, the inhibition at 10 µM under setting [1] was 35 to 70%.

With `COc1ccc(CCCOc2ccc(C[C@H](N)C(=O)N3CCN(Cc4cccc(Cl)c4Cl)CC3)cc2)cc1OC` [Example 265], the IC50 is under 1.5 µM. For the same molecule, the “Displacement Rate (%) (at 10 μM)” value under setting [1] is given as “++ (++ = 71-90)”.

For the molecule `CCc1ccc(CN2CCN(C(=O)[C@@H](N)Cc3ccc(OCc4ccccc4)cc3)CC2)cc1` [Example 135], the 50% inhibitory concentration (IC50) is over 3 µM. The inhibition at 10 µM under setting [1] was in the range of 35 to 70%.

Consider `COc1cccc(COc2ccc(C[C@H](N)C(=O)N3CCN(Cc4cccc(Cl)c4Cl)CC3)cc2)c1` [Example 203], for which the IC50 was in the range of 1.5 to 3 µM. For the same molecule, under setting [1], the “Displacement Rate (%) (at 10 μM)” value is “+++ (+++ = 91-100)”.

In the case of `N[C@@H](Cc1ccc(OCc2ccccc2)cc1)C(=O)N1CCN(Cc2ccc3ccccc3c2)CC1` [Example 105], the IC50 is under 1.5 µM. Further, the inhibition at 10 µM under setting [1] was 71 to 90%.

With `N[C@@H](Cc1ccc(OCCc2ccc(Cl)cc2)cc1)C(=O)N1CCN(Cc2cccc(Cl)c2Cl)CC1` [Example 245], the IC50 is under 1.5 µM. Under setting [1], the “Displacement Rate (%) (at 10 μM)” value is “+++ (+++ = 91-100)”.

On to `N[C@@H](Cc1ccc(OCc2ccccc2)cc1)C(=O)N1CCN(Cc2ccc(Oc3ccccc3)cc2)CC1` [Example 84], for which the IC50 is under 1.5 µM. For the same molecule, the inhibition at 10 µM under setting [1] fell in the range of 91 to 100%.

With `N[C@@H](Cc1ccc(OCc2ccccc2)cc1)C(=O)N1CCN(Cc2ccc(C(F)(F)F)cc2)CC1` [Example 138], the IC50 was over 3 µM. Further, the inhibition at 10 µM under setting [1] was 35 to 70%.

Consider `N[C@@H](Cc1ccc(OCc2ccccc2)cc1)C(=O)N1CCCN(Cc2cc(OCc3ccccc3)cc(OCc3ccccc3)c2)CC1` [Example 12], for which the IC50 was under 1.5 µM. Besides, the inhibition at 10 µM under setting [1] was in the range of 91 to 100%.
